Here are results for 46 compounds from the Kinase Knowledgebase extract (Sharma et al. 2016).

Common to all, as to assay: Enzyme Assay
Assay [1] has as its target PIK3CA (human) (UniProt P42336).
Assay [2] deals with PIK3CB (Human) (UniProt P42338).
The target of assay [3] is PIK3CD (Human) (UniProt O00329).

The term IC50 denotes the concentration that gives 50% inhibition. Higher therefore signals weaker potency in that assay.

Sequence of PIK3CA (human) (P42336 whole entry, looked up): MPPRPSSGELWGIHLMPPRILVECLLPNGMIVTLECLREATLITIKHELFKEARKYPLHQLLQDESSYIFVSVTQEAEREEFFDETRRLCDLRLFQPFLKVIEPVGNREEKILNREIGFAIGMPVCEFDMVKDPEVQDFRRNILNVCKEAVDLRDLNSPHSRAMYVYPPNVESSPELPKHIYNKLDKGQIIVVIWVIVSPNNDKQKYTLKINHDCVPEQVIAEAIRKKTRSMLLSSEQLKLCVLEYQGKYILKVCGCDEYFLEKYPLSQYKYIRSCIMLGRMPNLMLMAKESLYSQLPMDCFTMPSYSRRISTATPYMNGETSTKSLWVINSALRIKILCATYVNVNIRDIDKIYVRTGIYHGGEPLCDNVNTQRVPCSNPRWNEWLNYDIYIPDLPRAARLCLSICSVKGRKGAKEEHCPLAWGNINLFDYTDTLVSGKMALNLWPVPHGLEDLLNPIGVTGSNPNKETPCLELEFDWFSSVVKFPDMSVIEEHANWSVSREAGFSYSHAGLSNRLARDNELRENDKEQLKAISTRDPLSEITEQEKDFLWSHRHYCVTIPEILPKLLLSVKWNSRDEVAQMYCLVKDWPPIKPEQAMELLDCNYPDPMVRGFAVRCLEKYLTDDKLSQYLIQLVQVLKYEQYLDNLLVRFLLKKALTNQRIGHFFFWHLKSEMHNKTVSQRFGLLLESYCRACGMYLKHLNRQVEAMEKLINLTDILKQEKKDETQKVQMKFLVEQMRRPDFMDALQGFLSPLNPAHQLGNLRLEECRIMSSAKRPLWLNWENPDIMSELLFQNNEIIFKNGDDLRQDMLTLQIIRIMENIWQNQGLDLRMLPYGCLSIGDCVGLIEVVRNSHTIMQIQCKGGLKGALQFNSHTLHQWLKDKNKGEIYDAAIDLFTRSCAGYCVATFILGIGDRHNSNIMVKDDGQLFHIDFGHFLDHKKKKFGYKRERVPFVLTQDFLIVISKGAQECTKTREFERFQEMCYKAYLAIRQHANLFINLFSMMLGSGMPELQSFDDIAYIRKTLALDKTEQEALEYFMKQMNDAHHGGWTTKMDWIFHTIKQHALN
Sequence of PIK3CB (Human) (P42338 whole entry, looked up): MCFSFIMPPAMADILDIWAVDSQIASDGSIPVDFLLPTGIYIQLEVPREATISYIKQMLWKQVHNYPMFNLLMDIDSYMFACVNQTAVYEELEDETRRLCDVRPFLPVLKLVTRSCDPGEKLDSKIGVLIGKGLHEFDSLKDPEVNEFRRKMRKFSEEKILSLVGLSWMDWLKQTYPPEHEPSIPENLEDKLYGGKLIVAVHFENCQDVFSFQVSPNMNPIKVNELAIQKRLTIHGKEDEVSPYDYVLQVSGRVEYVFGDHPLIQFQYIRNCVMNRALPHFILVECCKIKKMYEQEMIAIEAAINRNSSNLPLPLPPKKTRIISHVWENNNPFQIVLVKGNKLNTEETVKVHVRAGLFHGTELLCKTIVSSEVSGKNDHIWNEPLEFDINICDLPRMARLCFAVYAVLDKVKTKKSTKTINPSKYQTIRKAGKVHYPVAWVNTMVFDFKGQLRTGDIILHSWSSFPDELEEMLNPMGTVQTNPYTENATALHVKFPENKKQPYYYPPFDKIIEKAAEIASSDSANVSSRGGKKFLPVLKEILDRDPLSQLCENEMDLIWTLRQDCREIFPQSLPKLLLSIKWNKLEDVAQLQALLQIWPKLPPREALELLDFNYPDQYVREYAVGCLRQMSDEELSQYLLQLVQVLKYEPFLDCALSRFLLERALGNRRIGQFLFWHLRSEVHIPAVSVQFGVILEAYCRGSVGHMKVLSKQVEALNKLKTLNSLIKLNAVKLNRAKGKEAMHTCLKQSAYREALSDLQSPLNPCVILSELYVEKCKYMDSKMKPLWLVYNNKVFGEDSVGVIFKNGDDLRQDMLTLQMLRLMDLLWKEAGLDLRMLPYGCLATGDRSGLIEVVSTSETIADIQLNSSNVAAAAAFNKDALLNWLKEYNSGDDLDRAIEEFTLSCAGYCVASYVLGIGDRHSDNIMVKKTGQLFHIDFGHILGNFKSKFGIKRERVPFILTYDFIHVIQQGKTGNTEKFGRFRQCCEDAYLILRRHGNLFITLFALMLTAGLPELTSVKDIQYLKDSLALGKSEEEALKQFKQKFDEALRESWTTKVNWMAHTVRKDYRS
Sequence of PIK3CD (Human) (O00329 whole entry, looked up): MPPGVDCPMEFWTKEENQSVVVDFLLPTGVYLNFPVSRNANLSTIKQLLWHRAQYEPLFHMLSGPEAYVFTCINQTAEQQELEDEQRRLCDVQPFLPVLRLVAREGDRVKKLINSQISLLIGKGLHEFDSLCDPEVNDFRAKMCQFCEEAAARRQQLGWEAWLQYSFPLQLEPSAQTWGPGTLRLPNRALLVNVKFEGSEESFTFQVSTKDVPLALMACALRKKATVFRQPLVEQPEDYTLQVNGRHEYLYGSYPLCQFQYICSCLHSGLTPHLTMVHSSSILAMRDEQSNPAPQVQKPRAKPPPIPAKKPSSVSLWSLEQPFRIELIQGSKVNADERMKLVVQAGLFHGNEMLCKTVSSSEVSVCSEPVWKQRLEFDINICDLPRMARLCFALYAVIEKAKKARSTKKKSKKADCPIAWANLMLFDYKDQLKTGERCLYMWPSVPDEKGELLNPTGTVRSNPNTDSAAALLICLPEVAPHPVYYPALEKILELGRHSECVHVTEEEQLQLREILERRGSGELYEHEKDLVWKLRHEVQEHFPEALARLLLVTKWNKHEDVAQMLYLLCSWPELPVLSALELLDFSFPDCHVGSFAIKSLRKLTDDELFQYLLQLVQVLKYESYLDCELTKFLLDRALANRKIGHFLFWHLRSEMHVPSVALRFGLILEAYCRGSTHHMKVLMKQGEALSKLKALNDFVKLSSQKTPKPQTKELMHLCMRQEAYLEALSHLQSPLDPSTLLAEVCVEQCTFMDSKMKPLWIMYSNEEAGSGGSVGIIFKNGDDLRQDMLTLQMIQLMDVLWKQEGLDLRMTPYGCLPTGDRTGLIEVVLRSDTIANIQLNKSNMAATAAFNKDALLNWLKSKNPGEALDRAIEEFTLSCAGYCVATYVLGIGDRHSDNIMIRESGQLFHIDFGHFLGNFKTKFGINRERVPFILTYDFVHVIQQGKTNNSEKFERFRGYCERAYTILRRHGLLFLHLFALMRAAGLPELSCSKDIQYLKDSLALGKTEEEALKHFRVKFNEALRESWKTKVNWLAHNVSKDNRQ

As for `Cc1cccc2cc(Cn3nc(-c4cc(O)cc(F)c4)c4c(N)ncnc43)n(-c3ccccc3C(C)C)c(=O)c12`, the half-inhibitory concentration (IC50) in assay [1] and in assay [2] was 0.1 to 1 µM each time.

For the compound `Cc1cccc2cc(Cn3nc(-c4cccc(O)c4)c4c(N)ncnc43)n(-c3ccccc3)c(=O)c12`, the concentration for half-maximal inhibition (IC50) in assay [1] and in assay [2] was more than 10 µM throughout.

On to `Cc1cccc2cc(Cn3nc(C(C)C)c4c(N)ncnc43)n(-c3ccccc3)c(=O)c12`, for which the 50% inhibitory concentration (IC50) in assay [1] and in assay [2] was more than 10 µM in each case.

In turn, `Cc1ccccc1-n1c(Cn2nc(-c3ccc4nc(N)ncc4c3)c3c(N)ncnc32)cc2cccc(C)c2c1=O` showed a concentration for half-maximal inhibition (IC50) in assay [2] of 0.1 to 1 µM.

`CCc1ccccc1-n1c(Cn2nc(-c3cc(O)cc(F)c3)c3c(N)ncnc32)cc2cccc(C)c2c1=O` returned an IC50 in assay [2] of 0.1 to 1 µM.

`Cc1ccccc1-n1c(Cn2nc(-c3ccc4ncnc(N)c4c3)c3c(N)ncnc32)cc2cccc(C)c2c1=O`: the IC50 in assay [2] was more than 10 µM.

For `Cc1ccccc1-n1c(CN(C)c2ncnc3[nH]cnc23)cc2cccc(C)c2c1=O`, the half-inhibitory concentration (IC50) in assay [1] and in assay [2] was more than 10 µM throughout.

For the compound `Cc1cccc2cc([C@H](C)Nc3cc(N)nc(N)n3)n(C3CC3)c(=O)c12`, the IC50 in assay [1] and in assay [2] was more than 10 µM throughout.

`Cc1cccc2cc(Cn3nc(-c4cn[nH]c4)c4c(N)ncnc43)n(-c3ccccc3C(C)C)c(=O)c12`: the 50% inhibitory concentration (IC50) in assay [2] was 0.1 to 1 µM.

With `Cc1cccc2cc(Cn3nc(-c4cc(O)cc(F)c4)c4c(N)ncnc43)n(-c3ccccc3O)c(=O)c12`, in assay [2], the 50% inhibitory concentration (IC50) fell in the range of 0.1 to 1 µM.

In the case of `Cc1cccc2cc(Cn3nc(-c4cccc(O)c4)c4c(N)ncnc43)n(C3CC3)c(=O)c12`, the IC50 in assay [1] and in assay [2] was 0.1 to 1 µM in each case.

`Cc1cccc2cc(Cn3nc(-c4cc(O)cc(F)c4)c4c(N)ncnc43)n(-c3ccccc3Cl)c(=O)c12` yielded an IC50 in assay [2] of 0.1 to 1 µM.

In the case of `Cc1cccc2cc(Cn3nc(-c4cnn(C)c4)c4c(N)ncnc43)n(-c3ccccc3F)c(=O)c12`, the IC50 in assay [1] and in assay [2] was more than 10 µM each time.

Take `Cc1cccc2cc(Cn3nc(-c4cccc(O)c4)c4c(N)ncnc43)n(C(C)C)c(=O)c12`: the half-inhibitory concentration (IC50) in assay [1] is more than 10 µM; in assay [2], 0.1 to 1 µM.

Consider `Cc1ccccc1-n1c(Cn2nc(-c3ccc(F)c(O)c3)c3c(N)ncnc32)cc2ccccc2c1=O`, for which the half-inhibitory concentration (IC50) in assay [1] and in assay [2] was more than 10 µM in each case.

Turning to `CCc1ccccc1-n1c(Cn2nc(-c3cccc(O)c3)c3c(N)ncnc32)cc2cccc(C)c2c1=O`, the IC50 in assay [1] and in assay [2] was more than 10 µM throughout.

With `Cc1cccc2cc(Cn3nc(-c4ccc(Cl)c(O)c4)c4c(N)ncnc43)n(-c3ccccc3F)c(=O)c12`, the IC50 in assay [1] and in assay [2] was more than 10 µM throughout.

In the case of `CC(=O)Nc1nc2ccc(-c3nn(Cc4cc5cccc(C)c5c(=O)n4C4CCC4)c4ncnc(N)c34)cc2s1`, in assay [2], the concentration for half-maximal inhibition (IC50) lay within 0.1 to 1 µM.

With `Cc1ccccc1-n1c(Cn2nc(-c3ccc(Cl)c(O)c3)c3c(N)ncnc32)cc2ccccc2c1=O`, the concentration for half-maximal inhibition (IC50) in assay [1] and in assay [2] was more than 10 µM in each case.

`Cc1ccccc1-n1c(Cn2nc(C#N)c3c(N)ncnc32)cc2cccc(C)c2c1=O`: the IC50 in assay [1] and in assay [2] was more than 10 µM in each case.

On to `Cc1ccccc1-n1c(Cn2nc(-c3cccc(O)c3)c3c(N)ncnc32)cc2cccc(F)c2c1=O`, for which the IC50 in assay [1] and in assay [2] was more than 10 µM each time.

In the case of `Cc1cccc2cc(Cn3nc(-c4cccc(O)c4)c4c(N)ncnc43)n(-c3ccccc3C(C)C)c(=O)c12`, the IC50 was more than 10 µM in assay [1] and 0.1 to 1 µM in assay [2].

In turn, `CCn1c(Cn2nc(-c3ccc4nc(NC(C)=O)sc4c3)c3c(N)ncnc32)cc2cccc(C)c2c1=O` came in with an IC50 in assay [2] of 0.1 to 1 µM.

Consider `Cc1ccccc1-n1c(Cn2nc(C#C[C@@H](C)O)c3c(N)ncnc32)cc2cccc(C)c2c1=O`, for which the IC50 in assay [1] and in assay [2] was more than 10 µM throughout.

Turning to `Cc1ccccc1-n1c(Cn2nc(CN3CCOCC3)c3c(N)ncnc32)cc2cccc(C)c2c1=O`, the IC50 in assay [1] and in assay [2] was more than 10 µM throughout.

For the compound `CCN(Cc1cc2cccc(C)c2c(=O)n1-c1ccccc1C)c1ncnc2[nH]cnc12`, the IC50 in assay [1] and in assay [2] was more than 10 µM each time.

Turning to `Cc1ccccc1-n1c(Cn2nc(CCC(=O)N3CCOCC3)c3c(N)ncnc32)cc2cccc(C)c2c1=O`, the concentration for half-maximal inhibition (IC50) in assay [1] and in assay [2] was more than 10 µM each time.

Take `Cc1cccc2cc(Cn3nc(I)c4c(N)ncnc43)n(-c3ccccc3O)c(=O)c12`: the concentration for half-maximal inhibition (IC50) in assay [1] and in assay [2] was more than 10 µM throughout.

Consider `Cc1cccc2cc(Cn3nc(C#C[C@@H](C)O)c4c(N)ncnc43)n(C3CCCCC3)c(=O)c12`, for which the IC50 in assay [1] and in assay [2] was more than 10 µM throughout.

Take `Cc1ccccc1-n1c(Cn2nc(-c3ccc(F)c(O)c3)c3c(N)ncnc32)cc2cccc(F)c2c1=O`: the half-maximal inhibitory concentration (IC50) in assay [1] and in assay [2] was more than 10 µM in each case.

As for `CC(=O)Nc1nc2ccc(-c3nn(Cc4cc5cccc(C)c5c(=O)n4-c4ccccc4)c4ncnc(N)c34)cc2[nH]1`, the IC50 in assay [1] and in assay [2] was more than 10 µM throughout.

Take `Cc1cccc2cc([C@H](C)Nc3nc(N)ncc3Cl)n(-c3ccccc3)c(=O)c12`: the IC50 was more than 10 µM in assay [1] and less than 0.1 µM in assay [3].

Consider `CC(=O)Nc1nc2ccc(-c3nn(Cc4cc5cccc(C)c5c(=O)n4C)c4ncnc(N)c34)cc2s1`, for which the IC50 in assay [2] fell in the range of 0.1 to 1 µM.

For the compound `Cc1cccc2cc([C@H](C)NC(=O)c3cnn4ccccc34)n(-c3ccccc3)c(=O)c12`, the IC50 in assay [1] and in assay [3] was more than 10 µM in each case.

With `Cc1cccc2cc(Cn3nc(C#N)c4c(N)ncnc43)n(-c3ccccc3F)c(=O)c12`, the IC50 in assay [1] and in assay [2] was more than 10 µM each time.

Regarding `Cc1cccc2cc(Cn3nc(I)c4c(N)ncnc43)n(C3CCC3)c(=O)c12`, the IC50 in assay [1] and in assay [2] was more than 10 µM throughout.

On to `COc1ccc(-c2nn(Cc3cc4cccc(C)c4c(=O)n3-c3ccccc3C)c3ncnc(N)c23)cc1`, for which the IC50 was more than 10 µM in assay [1] and 0.1 to 1 µM in assay [3].

Consider `Cc1cccc2cc(Cn3nc(-c4cccc(F)c4)c4c(N)ncnc43)n(-c3ccccc3F)c(=O)c12`, for which the IC50 in assay [1] and in assay [2] was more than 10 µM each time.

Regarding `Cc1cccc2cc(Cn3nc(C(C)(C)O)c4c(N)ncnc43)n(-c3ccccc3)c(=O)c12`, the IC50 in assay [1] and in assay [3] was more than 10 µM in each case.

As for `CCC(Nc1ncnc2[nH]cnc12)c1cc2cccc(C)c2c(=O)n1-c1ccccc1` (configuration not stated), the IC50 in assay [1] was more than 10 µM; in assay [3], less than 0.1 µM.

With `Cc1cccc2cc([C@H](C)Nc3ncnc4[nH]nc(Cl)c34)n(-c3ccccc3)c(=O)c12`, the figures for the IC50 in assay [1] and in assay [3] were more than 10 µM and less than 0.1 µM, respectively.

Take `Cc1cccc2cc([C@H](C)Nc3nc(N)ncc3C(F)(F)F)n(-c3ccccc3)c(=O)c12`: the IC50 in assay [1] was more than 10 µM; in assay [3] it was less than 0.1 µM.

As for `CNC(=O)c1nn(Cc2cc3cccc(C)c3c(=O)n2-c2ccccc2)c2ncnc(N)c12`, the IC50 is more than 10 µM in assay [1] and 0.1 to 1 µM in assay [3].

As for `COCc1nn(Cc2cc3cccc(C)c3c(=O)n2-c2ccccc2C)c2ncnc(N)c12`, the IC50 in assay [1] and in assay [3] was more than 10 µM in each case.

With `Cc1ccccc1-n1c(Cn2nc(-c3ccc4oc(N)nc4c3)c3c(N)ncnc32)cc2cccc(C)c2c1=O`, the IC50 in assay [1] was 0.1 to 1 µM; in assay [3], less than 0.1 µM.

`CCC(Nc1ncnc2[nH]cnc12)c1cc2cccc(C)c2c(=O)n1-c1c(F)cccc1F` (configuration not stated) gave a concentration for half-maximal inhibition (IC50) in assay [2] of more than 10 µM.
